This passage reports EC50 results from patent publication US20250154173A1 (Merck Sharp & Dohme LLC, priority 2023, published 2025).

The target of the assay is T1, GST-RIPK1 (recombinant GST-RIPK1 kinase domain (residues 1-327)) (Homo sapiens, UniProt Q13546).
T1 construct: recombinant GST-RIPK1 kinase domain (residues 1-327) enzyme produced from baculovirus-transfected Sf21 cells; host or cells: baculovirus-transfected Sf21 insect cells
T1 sequence (Q13546 1-327): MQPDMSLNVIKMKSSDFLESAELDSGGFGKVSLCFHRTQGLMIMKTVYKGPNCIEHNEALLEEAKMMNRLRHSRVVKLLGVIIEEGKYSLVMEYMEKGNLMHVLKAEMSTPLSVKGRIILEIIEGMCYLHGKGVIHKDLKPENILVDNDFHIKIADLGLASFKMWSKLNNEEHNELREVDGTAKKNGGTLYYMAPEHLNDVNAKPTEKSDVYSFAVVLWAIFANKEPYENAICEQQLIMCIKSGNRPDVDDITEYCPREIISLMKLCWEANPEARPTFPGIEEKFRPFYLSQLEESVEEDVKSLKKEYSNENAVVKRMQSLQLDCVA
The assay is described as follows: RIPK1-ADP-Glo Enzymatic Assay. In kind it is biochemical. Particulars: ten-point titration, top compound concentration of 100000 nM; 25 nM GST-RIPK1, 300 μM ATP, 3 μM dephosphorylated-MBP; 30 min pre-incubation, 150 min reaction. As to the method:
RIPK1-ADP-Glo Enzymatic Assay
The enzymatic activity of RIPK1 is measured using an assay derived from ADP-Glo kit (TMPromega), which provides a luminescent-based ADP detection system. Specifically, the ADP generated by RIPK1 kinase is proportionally detected as luminescent signals in a homogenous fashion. In this context, the assessment of the inhibitory effect of small molecules (EC50) is measured by the effectiveness of the compounds to inhibit the ATP to ADP conversion by RIPK1.
In this assay, the potency (EC50) of each compound was determined from a ten-point (1:3 serial dilution; top compound concentration of 100000 nM) titration curve using the following outlined procedure. To each well of a white ProxiPlus 384 well-plate, 30 nL of compound (1% DMSO in final assay volume of 3 μL) was dispensed, followed by the addition of 2 μL of 1× assay buffer (25 mM Hepes 7.3, 20 mM MgCl2, 50 mM NaCl, 1 mM DTT, 0.005% Tween20, and 0.02% BSA) containing 37.5 nM of GST-RIPK1 (recombinant GST-RIPK1 kinase domain (residues 1-327) enzyme produced from baculovirus-transfected Sf21 cells: MW=62 kDa). Plates were placed in an ambient temperature humidified chamber for a 30 minutes pre-incubation with compound. Subsequently, each reaction was initiated by the addition of 1 μL 1× assay buffer containing 900 μM ATP and 3 μM dephosphorylated-MBP substrate. The final reaction in each well of 3 μL consists of 25 nM of GST-RIPK1, 300 μM ATP, and 3 μM dephosphorylated-MBP. Kinase reactions were allowed to proceed for 150 minutes prior to adding ADP-Glo reagents per Promega's outlined kit protocol. Dose-response curves were generated by plotting percent effect (% product conversion; Y-axis) vs. Log 10 compound concentrations (X-axis). EC50 values were calculated using a non-linear regression, four-parameters sigmoidal dose-response model.
For orientation: ADP-Glo first removes unused ATP, then detects ADP through luciferase.

As for `O=C1N2[C@@H](CC[C@H]2c2cnccn2)O[C@]12C[C@@H](Oc1cccnc1)C2` [Example 19.1, (5′S,7a′R)-5′-(pyrazin-2-yl)-3-(pyridin-3-yloxy)tetrahydro-3′H-spiro[cyclobutane-1,2′-pyrrolo[2,1-b]oxazol]-3′-one], the EC50 (usually the midpoint of the concentration-response curve) stood at 31 nM.

For the compound `N#CCc1cccc(COC2CC3(C2)OC2CC[C@@H](c4cnccn4)N2C3=O)c1` (stereo partly drawn) [Example 18.10, [3-({[(5′S)-3′-oxo-5′-(pyrazin-2-yl)tetrahydro-3′H-spiro[cyclobutane-1,2′-pyrrolo[2,1-b][1,3]oxazol]-3-yl]oxy}methyl)phenyl]acetonitrile], the EC50 was found to be 12 nM.

Turning to `C[C@@H](OC1CC2(C1)O[C@@H]1CC[C@@H](c3cc(F)cc(F)c3)N1C2=O)c1ccc(F)cn1` (single isomer, unassigned) [Example 12.2, (1R,3R,5′S,7a′R)-5′-(3,5-difluorophenyl)-3-((S or R)-1-(5-fluoropyridin-2-yl)ethoxy)tetrahydro-3′H-spiro[cyclobutene-1,2′-pyrrolo[2,1-b]oxazol]-3′-one], the EC50 was 155 nM.

In the case of `O=C1N2C(CC[C@H]2c2cnccn2)OC12CC(OCc1cnc3nccn3c1)C2` (stereo partly drawn) [Example 18.94, (5′S)-3-[(imidazo[1,2-a]pyrimidin-6-yl)methoxy]-5′-(pyrazin-2-yl)tetrahydro-3′H-spiro[cyclobutane-1,2′-pyrrolo[2,1-b][1,3]oxazol]-3′-one], the EC50 was found to be 283 nM.

In the case of `O=C1N2[C@@H](CC[C@H]2c2ccccc2)OC12CC(Oc1cncc(Cl)c1)C2` (some centres unmarked) [Example 8.17], the EC50 turned out to be 35 nM.

For `O=C1N2[C@@H](CC[C@H]2c2cc(F)cc(F)c2)O[C@]12C[C@H](Oc1nccc3nccn13)C2` [Example 9.21, (1r,3R,5′S,7a′R)-5′-(3,5-difluorophenyl)-3-[(imidazo[1,2-c]pyrimidin-5-yl)oxy]tetrahydro-3′H-spiro[cyclobutane-1,2′-pyrrolo[2,1-b][1,3]oxazol]-3′-one], the 50% effective concentration (EC50) turned out to be 14 nM.

For `N#CCc1cccc(COC2CC3(C2)OC2CC[C@@H](c4cnccn4)N2C3=O)c1` (stereo partly drawn) [Example 18.62, [3-({[(5′S)-3′-oxo-5′-(pyrazin-2 yl)tetrahydro-3′H-spiro[cyclobutane-1,2′-pyrrolo[2,1-b][1,3]oxazol]-3-yl]oxy}methyl)phenyl]acetonitrile], the EC50 came out at 47 nM.

As for `N#Cc1cc(O[C@H]2C[C@@]3(C2)O[C@@H]2CC[C@@H](c4cnccn4)N2C3=O)ncn1` [Example 9.42, 6-(((5′S,7a′R)-3′-oxo-5′-(pyrazin-2-yl)tetrahydro-3′H-spiro[cyclobutane-1,2′-pyrrolo[2,1-b]oxazol]-3-yl)oxy)pyrimidine-4-carbonitrile], the EC50 was determined as 21 nM.

Regarding `O=C1N2C(CC[C@H]2c2cnccn2)OC12CC(OCc1csc3ncccc13)C2` (stereo partly drawn) [Example 18.68, (5′S)-5′-(pyrazin-2-yl)-3-[(thieno[2,3-b]pyridin-3-yl)methoxy]tetrahydro-3′H-spiro[cyclobutane-1,2′-pyrrolo[2,1-b][1,3]oxazol]-3′-one], the EC50 amounted to 43 nM.

For the compound `N#Cc1cc(F)cc(OC2CC3(C2)O[C@@H]2CC[C@@H](c4cnccn4)N2C3=O)c1` (some centres unmarked) [Example 19.16], the EC50 was determined as 18 nM.

Turning to `COc1ccc(COC2CC3(C2)OC2CC[C@@H](c4cnccn4)N2C3=O)cc1CC#N` (stereo partly drawn) [Example 18.86, [2-methoxy-5-({[(5′S)-3′-oxo-5′-(pyrazin-2-yl)tetrahydro-3′H-spiro[cyclobutane-1,2′-pyrrolo[2,1-b][1,3]oxazol]-3-yl]oxy}methyl)phenyl]acetonitrile], the EC50 was 94 nM.

`O=C1N2[C@@H](CC[C@H]2c2ccccc2)OC12CCC(OCc1ccccc1)CC2` (single isomer, unassigned) [Example 1.2, ((1s or r),4R,5′S,7a′R)-4-(benzyloxy)-5′-phenyltetrahydro-3′H-spiro[cyclohexane-1,2′-pyrrolo[2,1-b]oxazol]-3′-one]: the EC50 was 138 nM.

Turning to `CC(OC1CC2(C1)OC1CCC(c3cc(F)cc(F)c3)N1C2=O)c1ccccc1` (single isomer, unassigned) [Example 15.4, ((1R or S),3R,5′S,7a′R)-5′-(3,5-difluorophenyl)-3-((R or S)-1-phenylethoxy)tetrahydro-3′H-spiro[cyclobutane-1,2′-pyrrolo[2,1-b]oxazol]-3′-one], the EC50 came out at 19 nM.

Turning to `O=C1N2[C@@H](CC[C@H]2c2ccccc2)OC12CC(Oc1cncc(C(F)(F)F)c1)C2` (stereo partly drawn) [Example 8.8, (5′S,7a′R)-5′-phenyl-3-{[5-(trifluoromethyl)pyridin-3-yl]oxy}tetrahydro-3′H-spiro[cyclobutane-1,2′-pyrrolo[2,1-b][1,3]oxazol]-3′-one], the EC50 worked out at 155 nM.

For `O=C(O[C@H]1C[C@@]2(C1)O[C@@H]1CC[C@@H](c3cc(F)cc(F)c3)N1C2=O)c1ccccc1` [Example 14, (1r,3R,5′S,7a′R)-5′-(3,5-difluorophenyl)-3′-oxotetrahydro-3′H-spiro[cyclobutane-1,2′-pyrrolo[2,1-b]oxazol]-3-yl benzoate], the half-maximal effective concentration (EC50) amounted to 13 nM.

With `Cn1cc(C2CC[C@H]3OC4(CC(Oc5cc(C#N)ncn5)C4)C(=O)N23)cn1` (single isomer, unassigned) [Example 6.3, 6-((((1r or s),3R,5′(R or S),7a′R)-5′-(1-methyl-1H-pyrazol-4-yl)-3′-oxotetrahydro-3′H-spiro[cyclobutane-1,2′-pyrrolo[2,1-b]oxazol]-3-yl)oxy)pyrimidine-4-carbonitrile], the EC50 worked out at 129 nM.

Consider `O=C1N2[C@@H](CC[C@H]2c2cc(F)cc(F)c2)O[C@]12C[C@H](Oc1cccnc1Cl)C2` [Example 9.36, (5′S,7a′R)-3-[(2-chloropyridin-3-yl)oxy]-5′-(3,5-difluorophenyl)tetrahydro-3′H-spiro[cyclobutane-1,2′-pyrrolo[2,1-b][1,3]oxazol]-3′-one], for which the EC50 is 16 nM.

With `O=C1N2[C@@H](CC[C@H]2c2cc(F)cc(F)c2)O[C@]12C[C@H](Oc1ncnn3cccc13)C2` [Example 9.22, (1r,3R,5′S,7a′R)-5′-(3,5-difluorophenyl)-3-[(pyrrolo[2,1-f][1,2,4]triazin-4-yl)oxy]tetrahydro-3′H-spiro[cyclobutane-1,2′-pyrrolo[2,1-b][1,3]oxazol]-3′-one], the EC50 was 11 nM.

For `O=C1N2[C@@H](CC[C@H]2c2cc(F)cc(F)c2)O[C@]12C[C@H](Oc1cc(-c3cnn(C(F)F)c3)ncn1)C2` [Example 9.54, (5′S,7a′R)-3-((6-(1-(difluoromethyl)-1H-pyrazol-4-yl)pyrimidin-4-yl)oxy)-5′-(3,5-difluorophenyl)tetrahydro-3′H-spiro[cyclobutane-1,2′-pyrrolo[2,1-b]oxazol]-3′-one], the EC50 worked out at 24 nM.

In the case of `Cc1nnc(-c2cc(O[C@H]3C[C@@]4(C3)O[C@@H]3CC[C@@H](c5cc(F)cc(F)c5)N3C4=O)ncn2)o1` [Example 9.53, (5′S,7a′R)-5′-(3,5-difluorophenyl)-3-((6-(5-methyl-1,3,4-oxadiazol-2-yl)pyrimidin-4-yl)oxy)tetrahydro-3′H-spiro[cyclobutane-1,2′-pyrrolo[2,1-b]oxazol]-3′-one], the EC50 was 50 nM.

Take `O=C1N2[C@H](O[C@]13C[C@@H](OCc1ccccc1)C3)[C@H](O)C[C@H]2c1cnccn1` [Example 21.2, (1s,3S,5′S,7′R,7a′R)-3-(benzyloxy)-7′-hydroxy-5′-(pyrazin-2-yl)tetrahydro-3′H-spiro[cyclobutane-1,2′-pyrrolo[2,1-b]oxazol]-3′-one]: the EC50 stood at 106 nM.

Turning to `Cn1nccc1-c1cccc(OC2CC3(C2)O[C@@H]2CC[C@@H](c4cnccn4)N2C3=O)c1` (stereo partly drawn) [Example 19.13, (5′S,7a′R)-3-[3-(1-methyl-1H-pyrazol-5-yl)phenoxy]-5′-(pyrazin-2-yl)tetrahydro-3′H-spiro[cyclobutane-1,2′-pyrrolo[2,1-b][1,3]oxazol]-3′-one], the EC50 came out at 15 nM.

Take `O=C1N2[C@@H](CC[C@H]2c2cnccn2)OC12CC(OCc1ccccc1)C2` (stereo partly drawn) [Example 4.2, ((1s),3R,5′S,7a′R)-3-(benzyloxy)-5′-(pyrazin-2-yl)tetrahydro-3′H-spiro[cyclobutane-1,2′-pyrrolo[2,1-b]oxazol]-3′-one]: the EC50 was 24 nM.
